Results on nine molecules are retold here after US7855165B2, “Herbicide composition for paddy field” (Bayer Cropscience AG, priority 2007, dated 2010).

The subject of series [1] is Cyperus serotinus Rottboel. In words: Test Example 1: effect of the herbicide composition against paddy field weeds (pot test, green house). It is filed as in vivo. From the text:
(§1) • Component (a) (a-1): compound No. 1 (ref: the aforementioned Table A) • (a-2): compound No. 3 (same as above) • (a-3): compound No. 11 (same as above) • Component (b) the aforementioned (b-1)-(b-15) • Component (c) the aforementioned (c-1)-(c-3) <Preparation of Test Agents> • Carrier: Acetone 5 parts by weight • Surfactant: Benzyloxy polyglycol ether 1 part by weight The above-mentioned carrier and surfactant and 1 part by weight of active compounds (component (a) and component (b) or component (c)) are mixed and the obtained formulations are diluted with water to prepare the test agents of the prescribed chemicals amount (preparations).
(§2) In a green house, seeds or tubers of Monochoria vaginalis Presl, annual broad-leaves (Lindernia procumbens Philcox, Rotala indica Koehne, Elatine triandra Schk, Ammannia multiflora Roxb., etc.), Cyperus serotinus Rottboel, and Sagittaria pygmaea Miq were inoculated to paddy field soil filled in a 500 cm^2 pot and brought to a submerged condition of about 2-3 cm. At 1.5-2 leafstage of each weed prescribed diluted solution of preparation of each active compound and each herbicide in the following table was applied on water surface each singly or simultaneously. After the treatment, the submerged condition of 3 cm was maintained and the herbicidal effect was studied 3 weeks after the treatment. The herbicidal effect was evaluated as 100% in case of complete death and 0% in case of no effect.
(§3) In the tables, MOOVP represents Monochoria vaginalis Presl, BBBBB represents annual broad-leaves, CYPSE represents Cyperus serotinus Rottboel and SAGPY represents Sagittaria pygmaea Miq.

Series [2] relates to Monochoria vaginalis Presl. Described as above. Format: in vivo.
Description: as §1, §2, §3

In the next series the test system is Sagittaria pygmaea Miq. The series is described as above. Format: in vivo.
Description: as §1, §2, §3

Assay in series [3]: as above
Conditions: 504 h, read-out: Herbicidal effect (%) BBBBB. It is filed as in vivo, annual broad-leaves.
Description: as §2, with “At 1.5-2 leafstage of each weed prescribed diluted solution of preparation of each active compound and each herbicide in the following table was applied on water surface each singly or simultaneously.” left out
as §3

In the next series the test system is paddy rice. Nature of the series: Test Example 2: test of effect of phytotoxicity reduction. It is filed as in vivo. The conditions noted are these: 2 weeks after treatment.
Description: as §1
In a green house, paddy rice of 2-2.5 leafstage was transplanted to paddy field soil filled in a 1000 cm^2 pot to 2 cm depth and brought to a submerged condition of about 2-3 cm. Five days after the transplantation, prescribed diluted solution of preparation of each active compound and each herbicide in the following table was applied on water surface each singly or simultaneously. After the treatment, the submerged condition of 3 cm was maintained and the grade of phytotoxicity to paddy rice was studied 2 weeks after the treatment. The phytotoxicity was evaluated as 100% in case of complete death and 0% in case of no phytotoxicity.

The subject of series [4] is annual broad-leaves (Lindernia procumbens Philcox, Rotala indica Koehne, Elatine triandra Schk, Ammannia multiflora Roxb., etc.). In words: Test Example 1: effect of the herbicide composition against paddy field weeds (pot test, green house). It is filed as in vivo. Conditions: 3 weeks after treatment.
Description: as §2, with “At 1.5-2 leafstage of each weed prescribed diluted solution of preparation of each active compound and each herbicide in the following table was applied on water surface each singly or simultaneously.” left out
as §3

Where [5] appears, read: Cyperus serotinus, 504 h, read-out: Herbicidal effect (%) CYPSE.
Setting [6] is: Pontederia vaginalis, 504 h, read-out: Herbicidal effect (%) MOOVP.
Setting [7] is: Sagittaria pygmaea, 504 h, read-out: Herbicidal effect (%) SAGPY.
Where [8] appears, read: 50 g/ha single, 3 weeks after treatment.
The mark [9] stands for this setting: 100 g/ha single, 3 weeks after treatment.

Molecules are shown by their SMILES. Like-named read-outs stand apart in the source and are kept apart here.

As to `CCOc1ccccc1OS(=O)(=O)NC(=O)Nc1nc(OC)cc(OC)n1` [(b-13), ethoxysulfuron], the pest or weed control at 1.5 g/ha in series [1] (Cyperus serotinus, 504 h, 1.5 g/ha single, 3 weeks after treatment, read-out: Herbicidal effect (%) CYPSE) is 0%; in series [2] (Pontederia vaginalis, 504 h, 1.5 g/ha single, 3 weeks after treatment, read-out: Herbicidal effect (%) MOOVP) it was 65%; in the series on Sagittaria pygmaea Miq (Sagittaria pygmaea, 504 h, 1.5 g/ha single, 3 weeks after treatment, read-out: Herbicidal effect (%) SAGPY), 65%; in series [3] (1.5 g/ha single, 3 weeks after treatment), 40%. Besides, the pest or weed control at 3 g/ha in series [1] (Cyperus serotinus, 504 h, 3 g/ha single, 3 weeks after treatment, read-out: Herbicidal effect (%) CYPSE) is 0%; in series [2] (Pontederia vaginalis, 504 h, 3 g/ha single, 3 weeks after treatment, read-out: Herbicidal effect (%) MOOVP), 70%; in the series with Sagittaria pygmaea Miq (Sagittaria pygmaea, 504 h, 3 g/ha single, 3 weeks after treatment, read-out: Herbicidal effect (%) SAGPY), 65%; in series [3] (3 g/ha single, 3 weeks after treatment) it was 70%.
Turning to `Cc1ccc(NC(=O)NC(C)(C)c2ccccc2)cc1` [(c-1), dymron], in the series on paddy rice (450 g/ha single), the Phytotoxicity % is 0%.
As for `CCN(CC)C(=O)n1cnc(S(=O)(=O)c2c(C)cc(C)cc2C)n1` [(b-3), cafenstrole], the pest or weed control at 75 g/ha was determined as 0% in series [1] (setting [5]), 50% in series [2] (setting [6]), 10% in the series with Sagittaria pygmaea Miq (setting [7]) and 40% in series [3]. Further, the pest or weed control at 150 g/ha in series [1] (setting [5]) was 70%; in series [2] (setting [6]) it was 60%; in the series on Sagittaria pygmaea Miq (setting [7]), 10%; in series [3], 50%.
For `C#CCN(C)c1c(C#N)cnn1-c1nn2c(c1Cl)CCCC2` [(b-6), pyraclonil], the “Herbicidal effect (%) CYPSE” value in series [1] (setting [8]) is 20%; in series [1] (setting [9]), 30%. Also, the “Herbicidal effect (%) MOOVP” value in series [2] (setting [8]) worked out at 80%; in series [2] (setting [9]), 90%. For the same molecule, the “Herbicidal effect (%) SAGPY” value with Sagittaria pygmaea Miq (setting [8]) is given as 50%; with Sagittaria pygmaea Miq (setting [9]), 85%. The “Herbicidal effect (%) BBBBB” value in series [4] (50 g/ha single) and in series [4] (100 g/ha single) was 90% each time.
As for `CCCCOC(=O)[C@@H](C)Oc1ccc(Oc2ccc(C#N)cc2F)cc1` [(b-4), cyhalofop-butyl], the pest or weed control at 90 g/ha in series [1] (setting [5]) came out at 0%; in series [2] (setting [6]) it was 0%; with Sagittaria pygmaea Miq (setting [7]), 10%; in series [3], 0%. For the same molecule, the pest or weed control at 180 g/ha in series [1] (setting [5]) stood at 0%; in series [2] (setting [6]) it was 10%; with Sagittaria pygmaea Miq (setting [7]), 20%; in series [3], 0%.
With `CS(=O)(=O)c1ccc(C(=O)C2C(=O)CCCC2=O)c(Cl)c1COCC1CCCO1` (stereo not drawn) [(b-15), 2-{2-chloro-4-mesyl-3-[(tetrahydrofuran-2-ylmethoxy)-methyl]-benzoyl}-cyclohexan-1,3-dione], the pest or weed control at 75 g/ha in series [1] (Cyperus serotinus, 504 h, 75 g/ha single, 3 weeks after treatment, read-out: Herbicidal effect (%) CYPSE) came to 80%; in series [2] (Pontederia vaginalis, 504 h, 75 g/ha single, 3 weeks after treatment, read-out: Herbicidal effect (%) MOOVP), 85%; with Sagittaria pygmaea Miq (Sagittaria pygmaea, 504 h, 75 g/ha single, 3 weeks after treatment, read-out: Herbicidal effect (%) SAGPY), 80%; in series [3] (75 g/ha single, 3 weeks after treatment) it was 50%. Besides, the pest or weed control at 150 g/ha turned out to be 85% in series [1] (Cyperus serotinus, 504 h, 150 g/ha single, 3 weeks after treatment, read-out: Herbicidal effect (%) CYPSE); 95% in series [2] (Pontederia vaginalis, 504 h, 150 g/ha single, 3 weeks after treatment, read-out: Herbicidal effect (%) MOOVP); 80% in the series on Sagittaria pygmaea Miq (Sagittaria pygmaea, 504 h, 150 g/ha single, 3 weeks after treatment, read-out: Herbicidal effect (%) SAGPY); 65% in series [3] (150 g/ha single, 3 weeks after treatment).
In the series with paddy rice (500 g/ha single), `O=C(O)C1=NOC(c2ccccc2)(c2ccccc2)C1` [(c-3), isoxadifen] displayed a Phytotoxicity % of 0%.
`CCOC(=O)C1=NN(c2ccc(Cl)cc2Cl)C(C)(C(=O)OCC)C1` (stereo not drawn) [(c-2), mefenpyr-diethyl] had a Phytotoxicity % with paddy rice (500 g/ha single) of 0%.
With `COc1cc(OC)nc(Oc2cccc(Oc3nc(OC)cc(OC)n3)c2C(=O)O)n1` [(b-7), bispyribac-sodium], the pest or weed control at 2.5 g/ha in series [1] (Cyperus serotinus, 504 h, 2.5 g/ha single, 3 weeks after treatment, read-out: Herbicidal effect (%) CYPSE) came to 20%; in series [2] (Pontederia vaginalis, 504 h, 2.5 g/ha single, 3 weeks after treatment, read-out: Herbicidal effect (%) MOOVP), 0%; with Sagittaria pygmaea Miq (Sagittaria pygmaea, 504 h, 2.5 g/ha single, 3 weeks after treatment, read-out: Herbicidal effect (%) SAGPY) it was 0%; in series [3] (2.5 g/ha single, 3 weeks after treatment) it was 10%. The pest or weed control at 5 g/ha in series [1] (Cyperus serotinus, 504 h, 5 g/ha single, 3 weeks after treatment, read-out: Herbicidal effect (%) CYPSE) amounted to 60%; in series [2] (Pontederia vaginalis, 504 h, 5 g/ha single, 3 weeks after treatment, read-out: Herbicidal effect (%) MOOVP) it was 10%; in the series on Sagittaria pygmaea Miq (Sagittaria pygmaea, 504 h, 5 g/ha single, 3 weeks after treatment, read-out: Herbicidal effect (%) SAGPY) it was 30%; in series [3] (5 g/ha single, 3 weeks after treatment) it was 10%.
